Measured values: PubChem BioAssay AID248 (DTP/NCI, 2004)
Where “and” joins values, the source holds several entries; their conditions need not be identical. Identical values can stand only once. Inconclusive results and toxic doses are left out. No stated cut-off is given here; in the data, active means T/C of 150% or more; inactive means T/C below 125%.

Tested on: L1210 leukemia ip in BDF1 mice, survival T/C
Assay: NCI In Vivo Anticancer Drug Screen. Data for tumor model L1210 Leukemia (intraperitoneal) in B6D2F1 (BDF1) mice
Settings: endpoint: mean survival time, higher = longer survival
Procedure, shortened: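 Survival endpoint. Drug-treated group vs vehicle group, expressed as T divided by C. Tumor passaged by transplantation.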

[1] = dose: 50.0 mg/kg/injection, schedule: Q01DX001 (ip), vehicle: saline
[2] = dose: 100.0 mg/kg/injection, schedule: Q01DX001 (ip), vehicle: saline
[3] = dose: 200.0 mg/kg/injection, schedule: Q01DX001 (ip), vehicle: saline
[4] = dose: 400.0 mg/kg/injection, schedule: Q01DX001 (ip), vehicle: saline
[5] = dose: 100.0 mg/kg/injection, schedule: Q01DX009 (ip), vehicle: saline
[6] = dose: 100.0 mg/kg/injection, schedule: Q04DX003 (ip), vehicle: saline
[7] = dose: 200.0 mg/kg/injection, schedule: Q01DX009 (ip), vehicle: saline
[8] = dose: 200.0 mg/kg/injection, schedule: Q04DX003 (ip), vehicle: saline
[9] = dose: 400.0 mg/kg/injection, schedule: Q01DX009 (ip), vehicle: saline
[10] = dose: 400.0 mg/kg/injection, schedule: Q04DX003 (ip), vehicle: saline
[11] = dose: 100.0 mg/kg/injection, schedule: Q01DX001 (ip), vehicle: carboxymethylcellulose (CMC)
[12] = dose: 200.0 mg/kg/injection, schedule: Q01DX001 (ip), vehicle: carboxymethylcellulose (CMC)
[13] = dose: 400.0 mg/kg/injection, schedule: Q01DX001 (ip), vehicle: carboxymethylcellulose (CMC)
[14] = dose: 100.0 mg/kg/injection, schedule: Q01DX009 (ip), vehicle: Klucel (hydroxypropylcellulose) (HPC)
[15] = dose: 100.0 mg/kg/injection, schedule: Q04DX003 (ip), vehicle: Klucel (hydroxypropylcellulose) (HPC)
[16] = dose: 200.0 mg/kg/injection, schedule: Q01DX009 (ip), vehicle: Klucel (hydroxypropylcellulose) (HPC)
[17] = dose: 200.0 mg/kg/injection, schedule: Q04DX003 (ip), vehicle: Klucel (hydroxypropylcellulose) (HPC)
[18] = dose: 400.0 mg/kg/injection, schedule: Q01DX009 (ip), vehicle: Klucel (hydroxypropylcellulose) (HPC)
[19] = dose: 400.0 mg/kg/injection, schedule: Q04DX003 (ip), vehicle: Klucel (hydroxypropylcellulose) (HPC)
[20] = dose: 100.0 mg/kg/injection, schedule: Q04DX002 (ip), vehicle: Klucel (hydroxypropylcellulose) (HPC)
[21] = dose: 200.0 mg/kg/injection, schedule: Q04DX002 (ip), vehicle: Klucel (hydroxypropylcellulose) (HPC)
[22] = dose: 400.0 mg/kg/injection, schedule: Q04DX002 (ip), vehicle: Klucel (hydroxypropylcellulose) (HPC)
[23] = dose: 50.0 mg/kg/injection, schedule: Q01DX001 (ip), vehicle: carboxymethylcellulose (CMC)
[24] = dose: 75.0 mg/kg/injection, schedule: Q01DX001 (ip), vehicle: carboxymethylcellulose (CMC)
[25] = dose: 100.0 mg/kg/injection, schedule: Q04DX002 (ip), vehicle: saline with Tween-80
[26] = dose: 100.0 mg/kg/injection, schedule: Q04DX003 (ip), vehicle: saline with Tween-80
[27] = dose: 200.0 mg/kg/injection, schedule: Q04DX003 (ip), vehicle: saline with Tween-80
[28] = dose: 400.0 mg/kg/injection, schedule: Q04DX003 (ip), vehicle: saline with Tween-80
[29] = dose: 100.0 mg/kg/injection, schedule: Q01DX009 (ip), vehicle: saline with Tween-80

Measured: T/C

COC(=O)C1CCN(Cc2ccccc2)CC1=O (stereo unspecified)
inactive: [1] 110 % of control | [2] 104 % of control | [3] 104 % of control | [4] 104 % of control

CCOC(=O)C(O)(CC)CC
inactive: [5] 96 % of control | [6] 93 % of control | [7] 101 % of control | [8] 93 % of control | [9] 102 % of control | [10] 95 % of control

COc1c(C)ccc(/C=N/NC(=O)c2ccncc2)c1C
inactive: dose: 100.0 mg/kg/injection, schedule: Q04DX002 (ip), vehicle: carboxymethylcellulose (CMC) 95 % of control | dose: 200.0 mg/kg/injection, schedule: Q04DX002 (ip), vehicle: carboxymethylcellulose (CMC) 95 % of control | dose: 400.0 mg/kg/injection, schedule: Q04DX002 (ip), vehicle: carboxymethylcellulose (CMC) 92 % of control

Cc1ccc(S(=O)(=O)Nc2ccccc2N=Cc2ccc(N(CCCl)CCCl)cc2)cc1
inactive: [11] 115 % of control | [12] 106 % of control | [13] 90 % of control

O=S(=O)(Nc1ccccc1F)c1cc(Cl)c(Cl)cc1Cl
inactive: [5] 96 % of control | [7] 96 % of control | [9] 94 % of control

OC1(c2ccncc2)CCc2ccccc21 (stereo unspecified)
inactive: dose: 50.0 mg/kg/injection, schedule: Q01DX009 (ip), vehicle: Klucel (hydroxypropylcellulose) (HPC) 101 % of control | [14] 98 % of control | [15] 97 % of control | [16] 102 % of control | [17] 101 % of control

Cc1ccc(S(=O)(=O)CC(O)(/C=C/c2ccccc2)c2ccccc2)cc1 (stereo unspecified)
inactive: dose: 100.0 mg/kg/injection, schedule: Q01DX001 (ip), vehicle: acetone 98 % of control | dose: 200.0 mg/kg/injection, schedule: Q01DX001 (ip), vehicle: acetone 93 % of control | dose: 400.0 mg/kg/injection, schedule: Q01DX001 (ip), vehicle: acetone 89 % of control

COC1/C=C/OC2(C)Oc3c(C)c(O)c4c(O)c(c(/C=N/NC5CCCCCCCCCCCCCC5)c(O)c4c3C2=O)NC(=O)/C(C)=C\C=C\C(C)C(O)C(C)C(O)C(C)C(OC(C)=O)C1C (stereo unspecified)
inactive: dose: 100.0 mg/kg/injection, schedule: Q01DX003 (ip), vehicle: saline with Tween-80 95 % of control | dose: 200.0 mg/kg/injection, schedule: Q01DX003 (ip), vehicle: saline with Tween-80 95 % of control | dose: 400.0 mg/kg/injection, schedule: Q01DX003 (ip), vehicle: saline with Tween-80 102 % of control

Cc1[nH]c(N)nc(=S)c1CCC(=O)O
inactive: [14] 96 % of control | [15] 98 % of control | [16] 96 % of control | [17] 93 % of control | [18] 98 % of control | [19] 90 % of control

O=C(Nc1ccc(S(=O)(=O)F)cc1)/C(=C\c1ccc([N+](=O)[O-])cc1)c1cccc(Cl)c1
inactive: [20] 94 % of control | [21] 105 % of control | [22] 105 % of control

Cc1ccc(-c2nnc3c4ccccc4ccn23)cc1
inactive: [11] 93 % of control | [12] 93 % of control | [13] 91 % of control

CCCCN(CCCC)C(=N)OC1CCCCC1
inactive: dose: 8.8 mg/kg/injection, schedule: Q01DX Z (ip), vehicle: methylcellulose (MC) 93 % of control | dose: 13.3 mg/kg/injection, schedule: Q01DX Z (ip), vehicle: methylcellulose (MC) 91 % of control | dose: 20.0 mg/kg/injection, schedule: Q01DX Z (ip), vehicle: methylcellulose (MC) 97 % of control

CCC(NC(C)=O)C(=O)O (stereo unspecified)
inactive: dose: 100.0 mg/kg/injection, schedule: Q04DX002 (ip), vehicle: saline 101 % of control | [6] 104 % of control | dose: 200.0 mg/kg/injection, schedule: Q04DX002 (ip), vehicle: saline 90 % of control | [8] 96 % of control | dose: 400.0 mg/kg/injection, schedule: Q04DX002 (ip), vehicle: saline 116 % of control | [10] 95 % of control

O=P(O)(c1ccccc1)c1ccccc1
inactive: [20] 102 % of control and 86 % of control | [21] 93 % of control and 89 % of control | [22] 96 % of control

COc1cc(C)c2c(OC)ccc(OC)c2n1
inactive: [2] 94 % of control | [3] 97 % of control | [4] 103 % of control

CCOC(=O)/C=C/C(=O)O
inactive: [23] 111 % of control | [24] 86 % of control | [11] 105 % of control | [6] 95 % of control and 109 % of control | [12] 114 % of control | [8] 103 % of control and 109 % of control | [13] 101 % of control | [10] 95 % of control and 97 % of control

CCCCCCCCCCCCC(CCC)(OO)C(=O)OC (stereo unspecified)
inactive: dose: 25.0 mg/kg/injection, schedule: Q04DX002 (ip), vehicle: saline with Tween-80 98 % of control | dose: 50.0 mg/kg/injection, schedule: Q04DX002 (ip), vehicle: saline with Tween-80 87 % of control | [25] 98 % of control

Nc1cc(=O)n(Cc2ccccc2)c(=O)n1Cc1ccccc1
inactive: [23] 104 % of control | [11] 101 % of control | [12] 111 % of control | [13] 98 % of control

S=c1nc(-c2ccccc2)[nH][nH]1
inactive: [26] 97 % of control | [27] 98 % of control | [28] 88 % of control

Cc1cc(=O)c2cc(-c3ccccc3)ccc2[nH]1
inactive: [6] 100 % of control | [8] 92 % of control | [10] 90 % of control

CCN(CC)CCCC#N
inactive: [1] 100 % of control | [2] 105 % of control | [3] 102 % of control

O=C(NC1CCCCC1)c1ccc(C(=O)NC2CCCCC2)cc1
inactive: [20] 94 % of control | [21] 102 % of control | [22] 91 % of control

O=C(CCCCCCCCC(=O)N/N=C/c1ccccc1)N/N=C/c1ccccc1
inactive: dose: 100.0 mg/kg/injection, schedule: Q01DX001 (ip), vehicle: saline with Tween-80 96 % of control and 90 % of control | [29] 102 % of control and 92 % of control | [25] 93 % of control and 97 % of control | [26] 97 % of control | dose: 200.0 mg/kg/injection, schedule: Q01DX001 (ip), vehicle: saline with Tween-80 88 % of control | dose: 200.0 mg/kg/injection, schedule: Q01DX009 (ip), vehicle: saline with Tween-80 93 % of control and 97 % of control | dose: 200.0 mg/kg/injection, schedule: Q04DX002 (ip), vehicle: saline with Tween-80 95 % of control and 87 % of control | [27] 97 % of control | dose: 400.0 mg/kg/injection, schedule: Q01DX001 (ip), vehicle: saline with Tween-80 86 % of control and 91 % of control | dose: 400.0 mg/kg/injection, schedule: Q01DX009 (ip), vehicle: saline with Tween-80 91 % of control and 92 % of control | dose: 400.0 mg/kg/injection, schedule: Q04DX002 (ip), vehicle: saline with Tween-80 93 % of control and 90 % of control | [28] 92 % of control

CC(=O)C1(c2ccccc2)C(C)(C)C(C)(C)C(=O)C(C)(C)C1(C)C
inactive: dose: 100.0 mg/kg/injection, schedule: Q04DX002 (ip), vehicle: gum acacia 99 % of control | dose: 200.0 mg/kg/injection, schedule: Q04DX002 (ip), vehicle: gum acacia 96 % of control | dose: 400.0 mg/kg/injection, schedule: Q04DX002 (ip), vehicle: gum acacia 92 % of control

CCOC(=O)C(CCSC(C)=O)SC(C)=O (stereo unspecified)
inactive: dose: 25.0 mg/kg/injection, schedule: Q01DX009 (ip), vehicle: saline with Tween-80 94 % of control | dose: 50.0 mg/kg/injection, schedule: Q01DX009 (ip), vehicle: saline with Tween-80 96 % of control | [29] 89 % of control | [26] 95 % of control | [27] 92 % of control

CC(=O)CCN1C(=O)c2ccccc2C1=O
inactive: [14] 100 % of control | [15] 101 % of control | [16] 104 % of control | [17] 90 % of control | [18] 97 % of control | [19] 96 % of control

O=[N+]([O-])c1cc(Cl)[n+]([O-])c(Cl)c1
inactive: [24] 101 % of control
